Results from ChEMBL document CHEMBL1201862, “PubChem BioAssay data set” (2004).
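1) Cells in 96-well plates. 2) Compound, 48 h, 5 concentrations. 3) Linear interpolation between surrounding doses. 4) Unreached endpoint = highest concentration. GI50 = concentration required for 50% inhibition of growth.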 Activity calls are given as the source filed them. Rule as the data show it: active = GI50 up to about 1.1 µM and inactive = higher.

How the values were obtained:
Test in all cases: growth of human tumour cells (NCI), 48 h
HCC 2998 = system: HCC 2998
TK-10 = system: TK-10
Malme-3M = system: Malme-3M
MDA-MB-435 = system: MDA-MB-435
IGROV-1 = system: IGROV-1
UO-31 = system: UO-31
MCF7 = system: MCF7
NCI-H522 = system: NCI-H522
NCI-H23 = system: NCI-H23
OVCAR-3 = system: OVCAR-3
HCT-15 = system: HCT-15
SK-MEL-28 = system: SK-MEL-28
SK-MEL-5 = system: SK-MEL-5
SNB-75 = system: SNB-75
MDA-MB-231 = system: MDA-MB-231
RPMI-8226 = system: RPMI-8226
MOLT-4 = system: MOLT-4
HL-60 = system: HL-60
SF-539 = system: SF-539
HOP-92 = system: HOP-92

Measured: GI50

COc1ccc(CN/C=N/C(C#N)=C(\N)C#N)cc1OC
> 100 µM: HCT-15
inactive: HCC 2998 > 100 µM | TK-10 > 100 µM | Malme-3M > 100 µM | MDA-MB-435 > 100 µM | IGROV-1 > 100 µM | UO-31 65 µM | MCF7 > 100 µM | NCI-H522 > 100 µM | NCI-H23 > 100 µM | OVCAR-3 > 100 µM | SK-MEL-28 > 100 µM | SK-MEL-5 > 100 µM | SNB-75 76.7 µM | MDA-MB-231 > 100 µM | RPMI-8226 > 100 µM | MOLT-4 > 100 µM | HL-60 > 100 µM | SF-539 > 100 µM

CC(NC(=O)OCc1ccccc1)NC(=O)C(CC(=O)OC(C)(C)C)NC(=O)OC(C)(C)C (stereo unspecified)
> 100 µM: HCT-15
inactive: TK-10 > 100 µM | HOP-92 > 100 µM | Malme-3M > 100 µM | MDA-MB-435 > 100 µM | IGROV-1 > 100 µM | UO-31 > 100 µM | MCF7 > 100 µM | NCI-H522 > 100 µM | NCI-H23 > 100 µM | OVCAR-3 > 100 µM | SK-MEL-28 > 100 µM | SK-MEL-5 > 100 µM | SNB-75 > 100 µM | MDA-MB-231 > 100 µM | RPMI-8226 > 100 µM | MOLT-4 > 100 µM | SF-539 > 100 µM

CCOC(=O)NC(Nc1ccc(S(=O)(=O)Nc2nc(C)cc(C)n2)cc1)(C(=O)OCC)C(F)(F)F (stereo unspecified)
inactive: HCC 2998 > 100 µM | TK-10 72.9 µM | HOP-92 > 100 µM | Malme-3M > 100 µM | MDA-MB-435 > 100 µM | IGROV-1 > 100 µM | UO-31 > 100 µM | MCF7 > 100 µM | NCI-H23 > 100 µM | OVCAR-3 > 100 µM | SK-MEL-28 > 100 µM | SK-MEL-5 > 100 µM | SNB-75 > 100 µM | MDA-MB-231 > 100 µM | RPMI-8226 > 100 µM | MOLT-4 > 100 µM | HL-60 > 100 µM | SF-539 > 100 µM
> 100 µM: HCT-15

C1=C[C@]2(CCC13OCCO3)COc1ccccc12
28 µM: HCT-15
inactive: HCC 2998 43.6 µM | TK-10 49.1 µM | HOP-92 46.7 µM | MDA-MB-435 31.9 µM | UO-31 35.3 µM | MCF7 33.3 µM | NCI-H23 26.5 µM | OVCAR-3 36.1 µM | SK-MEL-28 49.3 µM | SK-MEL-5 52 µM | SNB-75 42.3 µM | MDA-MB-231 75.9 µM | RPMI-8226 25.5 µM | MOLT-4 20.2 µM | HL-60 6.81 µM

CN(C)C1(N(C)C)Oc2c(c(=O)n(C)c(=O)n2C)C(c2ccc(Br)cc2)C1(F)F (stereo unspecified)
inactive: HCC 2998 > 100 µM | TK-10 > 100 µM | HOP-92 82.4 µM | MDA-MB-435 > 100 µM | UO-31 > 100 µM | MCF7 > 100 µM | NCI-H23 > 100 µM | OVCAR-3 > 100 µM | SK-MEL-28 > 100 µM | SK-MEL-5 > 100 µM | SNB-75 > 100 µM | MDA-MB-231 > 100 µM | RPMI-8226 > 100 µM | MOLT-4 > 100 µM
> 100 µM: HCT-15

C=C1CC(C)(c2cccc(Nc3nc4ccccc4c4occc34)c2)OC1=O (stereo unspecified)
3.52 µM: HCT-15
inactive: HCC 2998 2.43 µM | TK-10 3.56 µM | HOP-92 1.44 µM | Malme-3M 17.6 µM | MDA-MB-435 5.11 µM | UO-31 1.89 µM | MCF7 3.71 µM | OVCAR-3 4.8 µM | SK-MEL-28 13.9 µM | SK-MEL-5 15.1 µM | SNB-75 5.58 µM | MDA-MB-231 5.11 µM | RPMI-8226 2.03 µM | MOLT-4 10.6 µM | HL-60 2.27 µM | SF-539 1.69 µM

CC1Cc2cc(O)c(O)cc2-c2cc(O)c(O)cc2CC1C (stereo unspecified)
inactive: HCC 2998 17.4 µM | TK-10 26.4 µM | HOP-92 15.3 µM | Malme-3M 5.62 µM | MDA-MB-435 3.16 µM | IGROV-1 20.4 µM | UO-31 25.3 µM | MCF7 12.1 µM | NCI-H522 9.57 µM | NCI-H23 14.8 µM | OVCAR-3 10.9 µM | SK-MEL-28 11.9 µM | SK-MEL-5 4.81 µM | SNB-75 > 100 µM | MDA-MB-231 6.71 µM | RPMI-8226 32.4 µM | MOLT-4 14 µM | SF-539 5.85 µM
9.29 µM: HCT-15

CCOC(=O)C1C(c2ccccc2)C2(C#N)C(=N)OC1(C)C2(C#N)C#N (stereo unspecified)
inactive: HCC 2998 13.8 µM | TK-10 26.2 µM | HOP-92 20 µM | Malme-3M 20.5 µM | MDA-MB-435 22.4 µM | IGROV-1 18.5 µM | UO-31 16.2 µM | MCF7 46.8 µM | NCI-H23 17.5 µM | SK-MEL-5 10.5 µM | SNB-75 1.51 µM | MDA-MB-231 10.9 µM | RPMI-8226 20 µM | MOLT-4 21.1 µM | HL-60 20.7 µM | SF-539 18.1 µM
37.3 µM: HCT-15

COC(=O)C1CCC(=O)N1C(c1cc(OC)c(OC)c(OC)c1)c1cc(OC)c(OC)c(OC)c1 (stereo unspecified)
> 100 µM: HCT-15
inactive: TK-10 > 100 µM | HOP-92 > 100 µM | MDA-MB-435 > 100 µM | IGROV-1 94.6 µM | UO-31 > 100 µM | MCF7 > 100 µM | NCI-H522 > 100 µM | OVCAR-3 > 100 µM | SK-MEL-28 > 100 µM | SNB-75 > 100 µM | MDA-MB-231 > 100 µM | RPMI-8226 > 100 µM | MOLT-4 > 100 µM | HL-60 > 100 µM | SF-539 > 100 µM

Cc1ccc(-c2cn3c(nc4ccccc43)c(/C=C/c3ccco3)n2)cc1
inactive: HCC 2998 > 100 µM | TK-10 > 100 µM | HOP-92 > 100 µM | Malme-3M 65.6 µM | MDA-MB-435 29.2 µM | IGROV-1 62.1 µM | UO-31 > 100 µM | MCF7 29.6 µM | NCI-H23 37 µM | OVCAR-3 49.8 µM | SK-MEL-28 58.1 µM | SK-MEL-5 34.8 µM | SNB-75 > 100 µM | MDA-MB-231 > 100 µM | RPMI-8226 21 µM | HL-60 22.2 µM | SF-539 > 100 µM
> 100 µM: HCT-15

c1ccc2c(c1)OC(N1CCCC1)c1cnc(N3CCCC3)nc1-2 (stereo unspecified)
inactive: TK-10 49.2 µM | HOP-92 13.6 µM | Malme-3M 40.7 µM | MDA-MB-435 49.8 µM | UO-31 24.3 µM | MCF7 18.6 µM | NCI-H23 37 µM | OVCAR-3 22.9 µM | SK-MEL-28 79.6 µM | SNB-75 15.2 µM | MDA-MB-231 41.8 µM | RPMI-8226 20.7 µM | MOLT-4 24 µM | HL-60 27.4 µM | SF-539 68.1 µM
29.7 µM: HCT-15

c1cc2c(c(-c3c4ccccc4nc4ccccc34)c1)CC1(CC2)OCCO1
inactive: HCC 2998 > 100 µM | TK-10 > 100 µM | HOP-92 > 100 µM | Malme-3M > 100 µM | MDA-MB-435 > 100 µM | IGROV-1 > 100 µM | UO-31 > 100 µM | MCF7 > 100 µM | NCI-H522 > 100 µM | NCI-H23 > 100 µM | OVCAR-3 > 100 µM | SK-MEL-28 > 100 µM | SK-MEL-5 > 100 µM | SNB-75 > 100 µM | MDA-MB-231 > 100 µM | RPMI-8226 > 100 µM | MOLT-4 > 100 µM | SF-539 > 100 µM
> 100 µM: HCT-15

CS(=O)(=O)OC1CN2CCC1CC2 (stereo unspecified)
inactive: TK-10 > 100 µM | HOP-92 > 100 µM | Malme-3M > 100 µM | MDA-MB-435 > 100 µM | IGROV-1 > 100 µM | UO-31 > 100 µM | MCF7 > 100 µM | NCI-H522 > 100 µM | NCI-H23 > 100 µM | OVCAR-3 > 100 µM | SK-MEL-28 > 100 µM | SK-MEL-5 > 100 µM | SNB-75 > 100 µM | MDA-MB-231 > 100 µM | RPMI-8226 > 100 µM | MOLT-4 > 100 µM | HL-60 > 100 µM
> 100 µM: HCT-15

COc1ncnc2c1cnn2Cc1cn(CCCCO)nn1
> 100 µM: HCT-15
inactive: HCC 2998 > 100 µM | TK-10 > 100 µM | HOP-92 > 100 µM | Malme-3M > 100 µM | MDA-MB-435 > 100 µM | IGROV-1 > 100 µM | UO-31 > 100 µM | MCF7 > 100 µM | NCI-H522 > 100 µM | NCI-H23 > 100 µM | OVCAR-3 > 100 µM | SK-MEL-28 > 100 µM | SK-MEL-5 > 100 µM | MDA-MB-231 > 100 µM | RPMI-8226 > 100 µM | MOLT-4 > 100 µM | SF-539 > 100 µM

COc1cccc(/N=N/C(=N\NC(=O)c2ccc(C)cc2)c2ccc(N(CCC#N)CCC#N)cc2C)c1
inactive: HCC 2998 > 100 µM | TK-10 > 100 µM | HOP-92 > 100 µM | Malme-3M > 100 µM | MDA-MB-435 64.3 µM | IGROV-1 > 100 µM | UO-31 59.8 µM | MCF7 32.1 µM | NCI-H23 > 100 µM | OVCAR-3 37.6 µM | SK-MEL-28 > 100 µM | SK-MEL-5 > 100 µM | SNB-75 53.1 µM | MDA-MB-231 63.1 µM | RPMI-8226 > 100 µM | MOLT-4 > 100 µM | SF-539 > 100 µM
> 100 µM: HCT-15

O=[N+]([O-])c1ccc2nc3ccccc3cc2c1
active: OVCAR-3 0.342 µM | MOLT-4 < 0.01 µM
inactive: HCC 2998 1.63 µM | TK-10 1.64 µM | HOP-92 3.28 µM | Malme-3M 2.9 µM | MDA-MB-435 1.46 µM | IGROV-1 1.91 µM | UO-31 3.4 µM | MCF7 2.39 µM | NCI-H522 2.81 µM | NCI-H23 2.28 µM | SK-MEL-28 2.57 µM | SK-MEL-5 3.1 µM | SNB-75 3.7 µM | MDA-MB-231 2.55 µM | SF-539 2.1 µM
1.37 µM: HCT-15
